Data reported in publication PMC8225628, “Bispecific repurposed medicines targeting the viral and immunological arms of COVID-19” (Scientific Reports, 2021).
pIC50: −log10 of the molar value. Where “and” joins values, the source holds several entries; their conditions need not be identical. Equal entries are not always repeated. Where two headings read alike, the source gives them in different places. *1 amine or outer side, *2 acyl side, *3 side chain or, on linkers, in order; H or OH if unused. Where a SMILES comes first, the peptide text is derived from it. Bridges are numbered along the chain shown (N, C = ends). [ ]: non-standard residue; d: D form. The star is where a group is joined. hTyr(3S-OH,4S-OH,3'-OSO3H) = N[C@H](C(=O)O)[C@H](O)[C@@H](O)c1ccc(O)c(OS(=O)(=O)O)c1; Orn(4R-OH,5R-OH) = O=C([C@H](C[C@@H](O)[C@@H](O)N[*:3])N[*:1])[*:2]; Pro(3S-OH,4S-Me) = C[C@H]1CN[C@H](C(=O)O)[C@H]1O; X1 = CCCCCOc1ccc(-c2cc(-c3ccc(C(=O)*)cc3)no2)cc1; Gln(3R-OH) = NC(=O)C[C@@H](O)[C@H](N)C(=O)O; Hyp = O=C(O)[C@@H]1C[C@@H](O)CN1

Target: SARS-CoV-2 M^pro (Severe acute respiratory syndrome coronavirus 2, UniProt P0DTD1)
Experiment: biochemical
[1] = ReFRAME hits, >5e-6 = not potent enough to determine an IC50, read-out: M^pro IC50

Compound	pIC50 (read-out: M^pro IC50)	M^pro % inhibition at 10 µM (ReFRAME hits, 10 µM)	pIC50 [1]	other results
CC(=O)[O][Hg][c]1cc(C(C)(C)CC(C)(C)C)ccc1O [acetomeroctol]	< 5.30			M^pro % inhibition at 10 µM: 79%
CCCCCOc1ccc(-c2cc(-c3ccc(C(=O)N[C@H]4C[C@@H](O)[C@@H](O)NC(=O)[C@@H]5[C@@H](O)[C@@H](C)CN5C(=O)[C@H]([C@H](O)CC(N)=O)NC(=O)[C@H]([C@H](O)[C@@H](O)c5ccc(O)c(OS(=O)(=O)[O-])c5)NC(=O)[C@@H]5C[C@@H](O)CN5C(=O)[C@H]([C@@H](C)O)NC4=O)cc3)no2)cc1.[Na+] [micafungin Sodium, reference compound] (X1-[Orn(4R-OH,5R-OH)]T[Hyp][hTyr(3S-OH,4S-OH,3'-OSO3H)][Gln(3R-OH)][Pro(3S-OH,4S-Me)]; lactam 1-C)		50%	< 5.30	
teicoplanin [reference compound]		73% and 40%	< 5.30	
O=C(N/N=C/c1ccc([N+](=O)[O-])o1)c1cc([N+](=O)[O-])cc([N+](=O)[O-])c1O [nifursol]	< 5.30			
Nc1nc(N)nc(Nc2ccc([As]3SC(C(=O)O)C(C(=O)O)S3)cc2)n1 (stereo not drawn) [MELARSONYL]	6.00			M^pro % inhibition at 10 µM: 99%
O=C1OC2(c3ccccc31)c1cc(I)c(O)c(I)c1Oc1c2cc(I)c(O)c1I [erythrosine]				pIC50: 5.40
[(-)-epicatechin]		48%	< 5.30	
[Cl][Hg][Cl] [mercuric chloride]		89%	< 5.30	
CN1CCCN=C1/C=C/c1cccc(O)c1.O=C(O)c1cc2ccccc2c(Cc2c(O)c(C(=O)O)cc3ccccc23)c1O [oxantel (pamoate), reference compound]		77%		
CN1CCCN=C1/C=C/c1cccc(O)c1 [oxantel (pamoate), reference compound]			5.40	
(-)-epicatechin gallate		46%	< 5.30	
CC(C)[C@H](NC(=O)OCc1ccccc1)C(=O)N[C@@H](C)C(=O)N[C@@H](CC(=O)O)C(=O)COC(=O)c1c(Cl)cccc1Cl [Compound 5]				inhibition at 100 µM (at 100 µM): 50%
CN1CCCN=C1/C=C/c1cccs1 [Pyrantel pamoate, reference compound]				pIC50: 5.40
Cc1cc(O)c2c(=O)c3c(O)cc(O)c4c5c(O)cc(O)c6c(=O)c7c(O)cc(C)c8c1c2c(c34)c(c78)c65 [hypericin]	5.40			inhibition at 10 µM (read-out: M^pro % inhibition at 10 µM, ReFRAME hits, 10 µM): 71%
O=c1cc(-c2ccc(O)c(-c3c(O)cc(O)c4c(=O)cc(-c5ccc(O)cc5)oc34)c2)oc2cc(O)cc(O)c12 [amentoflavone]	< 5.30			
CC(=O)N[C@@H](Cc1ccc(O)cc1)C(=O)N[C@H](C(=O)N[C@@H](C)C(=O)N[C@@H](CC(=O)O)C(=O)COC(=O)c1c(C)cccc1C)C(C)C [Compound 6, Ac-YVAD-AOM, reference compound]				Inhibition of M^pro (in words): did not substantially inhibit
